# Data reported in the NIST ThermoML archive (doi:10.1016/j.tca.2015.11.010).
# ± gives the expanded uncertainty stated by the source.
# Assay: activity coefficient (dimensionless); of the first substance listed, at infinite dilution; xn = mol fraction of the nth substance listed
# Conditions: 298.15 K; 238 kPa; Liquid; Chromatography; x1 = 0
row,Structure (SMILES),activity coefficient
1,C=CC1CC=CCC1 (centres undefined) [4-ethenylcyclohexene] + CNC=O,16.6 ± 1.9
2,Cc1ccc(C(C)C)cc1 [1-(1-methylethyl)-4-methylbenzene] + CNC=O,22.3 ± 2.1
3,"Cc1ccc(C)cc1 [1,4-dimethylbenzene] + CNC=O",10.4 ± 0.9
4,Cc1ccccc1 [toluene] + CNC=O,7 ± 0.6
5,Brc1ccccc1 [bromobenzene] + CNC=O,6.3 ± 0.5
6,"C=CCCCCC=C [1,7-octadiene] + CNC=O",23 ± 2.1
7,"Cc1ccccc1C [1,2-dimethylbenzene] + CNC=O",9.8 ± 1.1
8,Clc1ccccc1 [chlorobenzene] + CNC=O,5.2 ± 0.6
9,"Cc1cccc(C)c1 [1,3-dimethylbenzene] + CNC=O",10.8 ± 0.7

# The remaining lines, values ahead:
row,activity coefficient,Structure (SMILES)
1,318 ± 32,CCCCCCCCCCC [undecane] + CNC=O
2,83.9 ± 4.5,CCCCCCCC [octane] + CNC=O
3,42.3 ± 3.3,C1CCCCCCC1 [cyclooctane] + CNC=O
4,60.5 ± 4.8,CCCCCCC [heptane] + CNC=O
5,4.8 ± 0.4,c1ccccc1 [benzene] + CNC=O
6,194 ± 9.1,CCCCCCCCCC [decane] + CNC=O
7,4 ± 0.3,Fc1ccccc1 [fluorobenzene] + CNC=O
8,122 ± 6.3,CCCCCCCCC [nonane] + CNC=O
9,38.6 ± 7.5,CCCCCC [hexane] + CNC=O
10,26.7 ± 3.7,c1ccc2ccccc2c1 [naphthalene] + CNC=O
